Patent publication US11708391B2, “Rapaglutins, novel inhibitors of GLUT and use thereof” (The Johns Hopkins University, priority 2016, dated 2023)
“Also recorded” adds a separate entry of the source. Read-outs that look alike come from different tables or passages of the source.

Key:
NFAT = NFAT reporter gene assay; format: cell-based
Excerpt: (§1) FIGS. 28A-28D. (a) A18 and E11 inhibit NFAT and A18, but not E11, stimulates SRE reporter gene signal. (b) E11 inhibits NFAT, NF-κB and IL2, but not MEF-2 or AP-1 pathways, in Jurkat T cells. (c) Glucose inhibitor stimulates SRE reporter gene signal.
(§2) Both A18 and E11 have shown immunosuppressive activity, blocking NFAT reporter gene activation and IL-2 production (see e.g., FIG. 28). As such, they can be used as immunosuppressive agents that have applications in treating organ transplantation rejection and all kinds of autoimmune diseases. […]

HEK 293T FLAG-Glut3 = test: alamar blue assay, HEK 293T Glut3 overexpression cells; format: cell-based
Excerpt: (§3) FIGS. 20A-20C. E11 is a specific inhibitor of Glut1. (a) Glut1 and Glut3 protein levels of wild type, Glut1 and Glut3 overexpression cells analyzed by western blotting. (b)(c) Inhibition of cell proliferation in HEK293T, Glut1 and Glut3 overexpression cells by A18 and E11.
(§4) Up to now, at least 14 different isoforms of GLUTs have been identified in human cells. It was then asked whether A18 and E11 are specific inhibitors of GLUT1. To answer this question, colon cancer DLD-1 wild type and GLUT1 gene knock out cell lines were chosen as a cell model (FIG. 4a). […] GLUTs that are most relevant to cancer are Glut1 and Glut3. To obtain additional evidence, Glut1 and Glut3 in HEK 293T cells were overexpressed and an alamar blue cell viability assay was performed again. […] (see FIGS. 4, 19, 20, 26; Table 4).

mTOR = test: Western blot, mTOR / S6K in HEK 293T; format: cell-based
Excerpt: FIGS. 7A-7B. (a) A18 activates AMPK and inhibits S6K in HEK 293T cells. […] (b) A18 and E11 activate AMPK and inhibit S6K in HEK 293T cells.
Whether A18 and E11 treatment affect key cell growth signaling proteins was examined next. […] But it has no effects on the phosphorylation of ERK, AKT or JNK (FIG. 7). As previously reported, AMPK is likely to act as the key link between the ATP reduction and the subsequent cancer cell inhibition. (FIGS. 7 and 23-25). Based on the data reported here, the working model for A18 and E11 was proposed as outlined in FIG. 8. […] These led to upregulation of phosphorylation of AMPK and downregulation of phosphorylation of S6K. […] (FIG. 8)

[1] = tested on: pancreatic cancer PANC10.05; test: alamar blue assay, PANC10.05; format: cell-based, human; conditions: PANC 10.05
Excerpt: (§5) Dose-dependent inhibition of cell proliferation by A18 and E11 was next evaluated in several other human cancer cell lines, including breast cancer HCC1954, pancreatic cancer PANC10.05, leukemia Jurkat T and colon cancer RKO (FIGS. 1b and 1c). […] (FIGS. 1 and 9; Table 3)

A549 lung cancer cells = test: alamar blue cell viability assay, A549; format: cell-based, human
Excerpt: FIG. 9. Heat map of the screening results. Scale: 0 (red), complete inhibition; 1 (green), no inhibition. Screening of the rapafucin library for toxicity hits against A549 lung cancer cells using alamar blue assay.
A 45,000 compound and 3000 pool rapafucin library were screened using the alamar blue cell viability assay with the human non-small cell lung cancer (NSCLC) cell line A549. […] Several potent rapafucin hits were discovered to inhibit cell proliferation of A549. […] Each was resynthesized on preparative scale, purified by silica gel chromatography, followed by HPLC purification, and subjected to a series of detailed structure characterization (schemes I and II; FIGS. 10-14).
as §5

HEK 293T FLAG-Glut1 = test: alamar blue assay, HEK 293T Glut1 overexpression cells; format: cell-based; conditions: for IC50: HEK 293T FLAG-Glut1
Excerpt: as §3, §4

IL2 = IL2 reporter / IL-2 production in Jurkat T cells; format: cell-based
Excerpt: as §1, §2

HEK 293T = test: flow cytometric cell cycle analysis in HEK 293T; format: cell-based; conditions: 5 μM, 24 h
Experimental: FIGS. 25A-25C. A18 and E11 inhibit cell cycle progression in the S phase. HEK 293T were incubated with DMSO (a), 5 μM A18 (b) or 5 μM E11 (c) for 24 h before they were harvested for cell cycle analysis.

breast cancer HCC1954 = test: alamar blue assay, HCC1954; format: cell-based, human
Excerpt: as §5

leukemia Jurkat T = test: alamar blue assay, Jurkat T; format: cell-based, human
Excerpt: as §5

[2] = tested on: DLD-1 GLUT1 gene knock out cells; test: 2-deoxy-D-[3H] glucose uptake in DLD-1 GLUT1 knock out cells; format: cell-based
Excerpt: (§6) FIGS. 4A-4B. E11 is a specific inhibitor of Glut1. (a) Glut1 protein levels of DLD-1 wild type and knock out cells analyzed by western blotting. (b) Inhibition of 2-deoxy-D-[3H] glucose uptake in DLD-1 wild type and knock out cells by E11 or A18.
as §4

DLD-1 wild type = test: 2-deoxy-D-[3H] glucose uptake in DLD-1 wild type cells; format: cell-based
Excerpt: as §6, §4

glucose transporters = tested on: T1, glucose transporters; test: 3-O-methyl-D-[3H] glucose uptake in A549 cells; format: cell-based, human; conditions: read-out: IC50 uptake of 3H-labeled 3-O-methylglucose
T1 construct: IC50 uptake of 3H-labeled 3-O-methylglucose; other: A549 cells; compared with 3-O-methylglucose uptake; other: A549 cells treated with drugs for 1 min; other: A549 cells, glucose uptake assay; other
Experimental: FIGS. 2A-2D. Inhibition of Glucose Transport by A18 and E11. (a) Inhibition of 3-O-methyl¬D-[3H] glucose uptake in A549 cells by A18. (b) Inhibition of 3-O-methyl-D-[3H] glucose uptake in A549 cells by E11. (c) Inhibition of 2-deoxy-D-[3H] glucose uptake in A549 […] cells by A18. (d) Inhibition of 2-deoxy-D-[3H] glucose uptake in A549 cells by E11.
Direct action on glucose transporters was measured by monitoring uptake of 3H-labeled 3-O-methylglucose, which is transported by glucose transporters but not metabolized further, allowing the assessment of initial rate of glucose uptake. […] Initial uptake can also be assessed by measuring the uptake of 3H-labeled 2-deoxy-D-glucose, which gets into the cell through glucose transporters and is phosphorylated by hexokinase but cannot be metabolized further due to the lack of oxygen at the second position.

HEK293T = test: alamar blue assay, HEK293T; format: cell-based
Excerpt: as §5, §4

Molecule: Gly-^MSerBu-Nal-^MAla [E11]
- NFAT reporter gene signal (NFAT): inhibit; also recorded: blocking
- inhibition in alamar blue cell viability assay (HEK 293T FLAG-Glut3; GLUT3 overexpression HEK 293T cells): didn't show any inhibition
- IC50 alamar blue assay (HEK 293T FLAG-Glut3; HEK 293T FLAG-Glut3): No activity
- mTOR inhibition (S6K) (mTOR): mTOR inhibition
- IC50 [1]: 79.8 nM
- IC50 (A549 lung cancer cells): 367 nM
- inhibition in alamar blue cell viability assay (HEK 293T FLAG-Glut1; GLUT1 overexpression HEK 293T cells): kept partial inhibitory activity
- IC50 (HEK 293T FLAG-Glut1): 658 nM
- IL-2 production (IL2): blocking
- IL2 pathway (IL2; Jurkat T cells): inhibits
- additional cells in S phase (HEK 293T): approximately 10%
- IC50 (breast cancer HCC1954): 159 nM
- IC50 (leukemia Jurkat T): 251 nM
- inhibition of 2-deoxy-D-glucose uptake [2]: didn't show any inhibition
- inhibition of 2-deoxy-D-glucose uptake (DLD-1 wild type): kept inhibitory activity
- IC50 (glucose transporters): 38.2 nM
- IC50 (HEK293T; HEK293T, Table 3): 154 nM
- IC50 (HEK293T; HEK 293T, Table 4): 84.8 nM

Molecule: CC[C@@H](C)[C@H]1C(=O)NCC(=O)N(C)CC/C=C/C(=O)OCC(C)(C)C(=O)C(=O)N2CCCC[C@H]2C(=O)O[C@H](CCc2ccc(OC)c(OC)c2)c2cccc(c2)NC(=O)CCC(=O)N(C)[C@@H](CC(C)C)C(=O)N[C@H](Cc2ccccc2)C(=O)N1C [A18]
- NFAT reporter gene signal (NFAT): inhibit; also recorded: blocking
- IC50 (HEK 293T FLAG-Glut3; Homo sapiens, HEK 293T FLAG-Glut3): 2350 nM
- mTOR inhibition (S6K) (mTOR): mTOR inhibition
- IC50 ([1]; Homo sapiens, Panc1005): 119 nM
- IC50 (A549 lung cancer cells; Homo sapiens): 189 nM
- IC50 (HEK 293T FLAG-Glut1; Homo sapiens): 573 nM
- IL-2 production (IL2): blocking
- additional cells in S phase (HEK 293T): approximately 10%
- IC50 (breast cancer HCC1954; Homo sapiens): 109 nM
- IC50 (leukemia Jurkat T; Homo sapiens): 132 nM
- inhibition of 2-deoxy-D-glucose uptake [2]: strongly inhibited
- inhibition of 2-deoxy-D-glucose uptake (DLD-1 wild type): strongly inhibited
- IC50 (glucose transporters): 18.7 nM
- IC50 (HEK293T; Homo sapiens, HEK-293T, HEK293T, Table 3): 110 nM
- IC50 (HEK293T; Homo sapiens, HEK-293T, HEK 293T, Table 4): 69 nM
